Measurements: a compilation of properties of binary mixtures (doi:10.1007/s10953-013-9990-0)

Test: xn = mol fraction of the nth substance listed
Conditions: 101 kPa

CCCC[N+]1(C)CCCC1.O=S(=O)([N-]S(=O)(=O)C(F)(F)F)C(F)(F)F + CC(C)O
speed of sound [m/s]
Conditions | 298.15 K | 303.15 K | 308.15 K
x2 = 0 | 1269.3 | – | 1247.1
x2 = 0.0593 | 1264.9 | 1253.7 | 1243.5
x2 = 0.1319 | – | 1248.7 | 1237.4
x2 = 0.2344 | 1250.8 | 1239.1 | –
x2 = 0.3929 | 1234.8 | 1222.9 | 1211.2
x2 = 0.4935 | 1222.3 | 1210.2 | 1198.1
x2 = 0.5927 | 1207.5 | – | 1182.9
x2 = 0.718 | 1184.1 | 1171.2 | 1158.4
x2 = 0.8015 | 1165.1 | 1151.8 | 1138.5
x2 = 0.9018 | 1143 | 1129.1 | 1115.9
x2 = 0.9491 | 1138.1 | 1122.5 | 1106.8

CCCC[n+]1cccc(C)c1.O=S(=O)([N-]S(=O)(=O)C(F)(F)F)C(F)(F)F + CC(C)O
speed of sound [m/s]
Conditions | 298.15 K | 303.15 K | 308.15 K
x2 = 0 | 1248.3 | 1237.1 | 1226
x2 = 0.0534 | 1245.3 | 1234.1 | 1222.2
x2 = 0.1034 | – | 1231 | 1219.8
x2 = 0.1577 | – | 1227.4 | 1216.1
x2 = 0.1756 | 1237 | 1225.7 | 1214.3
x2 = 0.3062 | 1227.4 | 1215.8 | 1204.2
x2 = 0.3957 | 1220.8 | 1209 | 1197.1
x2 = 0.51 | 1208.6 | 1197.3 | 1185.3
x2 = 0.6002 | 1197.7 | 1185.3 | 1173
x2 = 0.7046 | 1182.1 | 1169.3 | 1156.5
x2 = 0.8006 | – | – | 1135.4
x2 = 0.8988 | – | 1129.5 | 1115.2

CC(C)O + CCCC[N+]1(C)CCCC1.O=S(=O)([N-]S(=O)(=O)C(F)(F)F)C(F)(F)F
x1 = 1
Conditions | speed of sound [m/s]
298.15 K | 1139.6
303.15 K | 1122
308.15 K | 1104.4

CCCO + CCCC[N+]1(C)CCCC1.O=S(=O)([N-]S(=O)(=O)C(F)(F)F)C(F)(F)F
x1 = 1
Conditions | speed of sound [m/s]
298.15 K | 1206.4
303.15 K | 1189.3

CCO + CCCC[N+]1(C)CCCC1.O=S(=O)([N-]S(=O)(=O)C(F)(F)F)C(F)(F)F
x1 = 1
Conditions | speed of sound [m/s]
303.15 K | 1126.7
308.15 K | 1109.8

CC(C)O + CCCC[n+]1cccc(C)c1.O=S(=O)([N-]S(=O)(=O)C(F)(F)F)C(F)(F)F
x1 = 1
Conditions | speed of sound [m/s]
298.15 K | 1139.6
303.15 K | 1122

CCCO + CCCC[n+]1cccc(C)c1.O=S(=O)([N-]S(=O)(=O)C(F)(F)F)C(F)(F)F
x1 = 1
Conditions | speed of sound [m/s]
298.15 K | 1206.4
303.15 K | 1189.3
308.15 K | 1172.3

CCO + CCCC[n+]1cccc(C)c1.O=S(=O)([N-]S(=O)(=O)C(F)(F)F)C(F)(F)F
x1 = 1
Conditions | speed of sound [m/s]
298.15 K | 1143.6
303.15 K | 1126.7
308.15 K | 1109.8

CCCC[N+]1(C)CCCC1.O=S(=O)([N-]S(=O)(=O)C(F)(F)F)C(F)(F)F + CCCO
speed of sound [m/s]
Conditions | x2 = 0 | x2 = 0.0545 | x2 = 0.0931 | x2 = 0.1903 | x2 = 0.2935 | x2 = 0.3972 | x2 = 0.5916 | x2 = 0.7837 | x2 = 0.8975 | x2 = 0.9472
298.15 K | 1269.3 | 1267 | 1264.9 | 1259.7 | – | 1246 | 1230 | 1201.2 | 1190.9 | –
303.15 K | 1258.1 | – | 1253.5 | 1248.2 | 1241.7 | 1234.2 | – | 1188 | 1176.4 | 1178
308.15 K | 1247.1 | 1244.4 | 1242.3 | 1236.9 | 1230.2 | 1222.5 | 1206 | 1175 | 1162 | 1162.7

CCCC[n+]1cccc(C)c1.O=S(=O)([N-]S(=O)(=O)C(F)(F)F)C(F)(F)F + CCCO
speed of sound [m/s]
Conditions | 298.15 K | 303.15 K | 308.15 K
x2 = 0 | 1248.3 | 1237.1 | 1226
x2 = 0.0431 | – | 1235.4 | 1224.3
x2 = 0.0889 | 1244.5 | 1233.4 | 1222.3
x2 = 0.1564 | 1241.8 | – | 1219.1
x2 = 0.2913 | – | 1223.2 | 1211.8
x2 = 0.3788 | 1229.5 | 1217.9 | 1206.3
x2 = 0.5665 | 1215.6 | 1203.5 | 1191.5
x2 = 0.5901 | – | 1201.4 | 1189.3
x2 = 0.6913 | 1204 | 1191.4 | –
x2 = 0.8006 | 1194.1 | 1180.8 | 1167.7
x2 = 0.8947 | 1189.3 | 1174.9 | –
x2 = 0.9467 | 1193.4 | 1178 | 1162.7

CCCC[N+]1(C)CCCC1.O=S(=O)([N-]S(=O)(=O)C(F)(F)F)C(F)(F)F + CCO
speed of sound [m/s]
Conditions | 298.15 K | 303.15 K | 308.15 K
x2 = 0 | 1269.3 | 1258.2 | 1247.1
x2 = 0.0586 | 1266.6 | 1255.3 | 1244.2
x2 = 0.1981 | 1258.6 | 1247.2 | 1235.9
x2 = 0.2834 | 1252.8 | 1241.3 | 1229.9
x2 = 0.4449 | 1238.4 | 1226.6 | 1215
x2 = 0.5133 | 1230.8 | 1218.9 | 1207.1
x2 = 0.6012 | 1219.2 | – | –
x2 = 0.7078 | – | 1189.2 | 1176.8
x2 = 0.7929 | 1184.8 | 1171.6 | –
x2 = 0.8997 | 1158.2 | 1144 | 1129.8
x2 = 0.9492 | – | 1133.2 | –

CCCC[n+]1cccc(C)c1.O=S(=O)([N-]S(=O)(=O)C(F)(F)F)C(F)(F)F + CCO
speed of sound [m/s]
Conditions | 298.15 K | 303.15 K | 308.15 K
x2 = 0 | – | 1237.1 | –
x2 = 0.0533 | – | – | 1223.8
x2 = 0.0924 | 1244.5 | 1233.1 | –
x2 = 0.1963 | 1239.3 | 1227.9 | 1216.6
x2 = 0.3011 | 1233.2 | 1221.7 | 1210.3
x2 = 0.3959 | 1226.5 | 1214.9 | 1203.4
x2 = 0.4982 | – | 1206 | 1194.3
x2 = 0.599 | – | – | 1183.2
x2 = 0.6829 | 1195.9 | 1183.6 | 1171.3
x2 = 0.7355 | 1187.7 | 1175.2 | –
x2 = 0.8008 | 1176.4 | 1163.2 | 1150.3
x2 = 0.8991 | 1156.9 | 1142.8 | 1128.7
x2 = 0.9436 | 1149.9 | 1134.8 | 1119.9
